# Experimental data: patent publication US8952192B2, “Phosphorylated and branched dihydroxy-pentane-dione (DPD) analogs as quorum sensing inhibitors in bacteria” (University of Maryland, College Park, priority 2011, dated 2015)
# “Also recorded” adds a separate entry of the source.
# Experiments:
# S. mutans = assay: DPD analogs and representative bacterial species affected (Table 1); assay type: cell-based; set-up: key: x: DPD Analogs and representative bacterial species affected
# [1] = test system: lsr expression in E. coli (lsr-lacZ reporter strains); assay: QS response (lsr expression): AI-2 dependent β-galactosidase production, Miller assay; assay type: cell-based, Escherichia coli; conditions: for inhibition of AI-2-mediated lsr expression (β-galactosidase), in words: 20 μM AI-2 (DPD) + 20 μM analog; for IC50: concentration reducing lsr expression (β-galactosidase production) to 50% in the presence of 20 μM exogenously added synthetic DPD, read-out: IC50 of analog (nM) to inhibit QS in E. coli; for effect on native lsr expression (QS response): E. coli ZK126 pLW11 (luxS+), cells produce their own AI-2
# Description: (§1) The panel of C1-alkyl analogs was screened to identify QS modulators in the enteric bacteria E. coli and S. typhimurium. Transcription of the QS associated lsr operon, by using lsr-lacZ reporter strains (Table 2) which produce β-galactosidase in response to added AI-2 was monitored. In order to first establish if the analogs were agonists or antagonists in the QS circuit, the analogs were incubated with E. coli LW7 pLW11 and S. typhimurium MET715 (FIG. 19a-b) both of which are luxS^−. None of the analogs, except ethyl-DPD behaved as agonists for lsr expression. Previous studies investigating AI-2 antagonism in P. aeruginosa or in S. typhimurium were carried out using chemically synthesized AI-2 added to luxS^− cells. […] The same trends were obtained by adding a 1:1 ratio of enzymatically synthesized AI-2 and DPD analogs to the luxS^− strains E. coli LW7 pLW11 and S. typhimurium MET715 (FIG. 11a-b). None of the tested DPD analogs were bacteriocidal or bacteriostatic as the OD600 values of E. coli ZK126 pLW11 and S. typhimurium MET708 in the presence and absence of the analogs were similar (FIG. 10). Though the QS circuitry of the enteric organisms, E. coli and S. typhimurium are homologous they respond differently to the DPD analogs. The E. coli QS circuitry is susceptible to being silenced by a variety of DPD analogs of different shapes and sizes whereas in S. typhimurium, only a handful of DPD analogs could antagonize the action of AI-2. […] Isobutyl-DPD emerged as an effective and non-species-specific quencher; causing significant lsr expression knockdowns in both E. coli and S. typhimurium.
# (§2) The QS response indicated by lsr gene expression was analyzed in pure culture studies by culturing E. coli LW7 pLW11, E. coli ZK126 pLW11 and S. typhimurium MET708, S. typhimurium MET715 overnight in LB medium supplemented with appropriate antibiotics as stated previously. These cells were then diluted into fresh LB medium (with antibiotics) and grown to an OD600 of 0.8-1.0 at 30° C., 250 rpm. Cells were then collected by centrifugation at 10,000×g for 10 minutes, and resuspended in 10 mM phosphate buffer. AI-2 (20 μM) and the respective analog (20 μM) were added to the E. coli or S. typhimurium suspension for 2 hours at 37° C. AI-2 dependent β-galactosidase production was quantified by the Miller assay.
# (§3) The QS response indicated by lsr gene expression was analyzed in pure culture studies by culturing E. coli LW7 pLW11 and S. typhimurium MET715 overnight at 30° C. in LB medium supplemented with appropriate antibiotics as stated previously. These cells were then diluted into fresh LB medium (with antibiotics) and grown to an OD600 of 0.4-0.8 at 37° C., 250 rpm. Cells were then collected by centrifugation at 10,000×g for 10 min and resuspended in 10 mM phosphate buffer. AI-2 (20 μM) and the respective analog (20 μM) were added to the E. coli or S. typhimurium suspension for 2 h at 37° C. AI-2 dependent β-galactosidase production was quantified by the Miller assay.
# (§4) The QS response indicated by lsr gene expression was analyzed in pure culture studies by culturing E. coli LW7 pLW11, E. coli ZK126 pLW11 and S. typhimurium MET708, S. typhimurium MET715 overnight in LB medium individually supplemented with appropriate antibiotics, as specified above. These cells were diluted into fresh LB medium (with antibiotics) and grown to an OD600 of 0.8-1.0 at 30° C., 250 rpm. Cells were collected by centrifugation at 10,000×g for 10 minutes, and resuspended in 10 mM phosphate buffer. AI-2 (20 μM) and the respective analog (20 μM) were added to the E. coli or S. typhimurium suspension for 2 hours at 37° C. AI-2 dependent β-galactosidase production was quantified by the Miller assay.
# LsrK = target: T1, LsrK (Escherichia coli, UniProt P77432); assay: In vitro phosphorylation of analogs by LsrK (TLC, autoradiography); assay type: biochemical, E. coli; conditions: for phosphorylation by E. coli LsrK: incubation with LsrK in vitro for one hour (Example 6)
# T1 construct: made in house; host or cells: E. coli BL21
# Description: LsrK was purified and from E. coli BL21 pET200-LsrK as described before. Phosphorylated analogs were synthesized by incubating 1 μM) LsrK with 40 μM ATP (Roche), […] of [γ-^32P] […] A 5 μL aliquot was then spotted onto a cellulose TLC plate (Selecto Scientific). The plate was developed using 0.8 M LiCl as the solvent, air dried and developed via autoradiography.
# LsrK was purified from E. coli BL21 pET200-LsrK as described before. Phosphorylated analogs were synthesized by incubating (1 μM) LsrK with (40 μM) ATP (Roche), ([…]) of [P^32] […] An aliquot (2.5 μL) was then spotted onto a cellulose TLC plate (Selecto Scientific). The plate was developed using 0.8 M LiCl as the solvent, air dried and developed via autoradiography.
# [2] = target: lsr expression in S. typhimurium (lsr-lacZ reporter strains); assay: QS response (lsr expression): AI-2 dependent β-galactosidase production, Miller assay; assay type: cell-based, Salmonella typhimurium; conditions: for IC50: concentration reducing lsr expression (β-galactosidase production) to 50% in the presence of 20 μM exogenously added synthetic DPD, read-out: IC50 of analog (nM) to inhibit QS in S. typhimurium
# Description: as §1, §2, §3, §4
# [3] = test system: pyocyanin production in P. aeruginosa PAO1; assay: QS response (pyocyanin production); assay type: cell-based; conditions: pure culture P. aeruginosa PAO1, DPD analogs (100 μM)
# Description: Identifying Modulators of P. aeruginosa QS. DPD analogs (100 μM) were screened for activity in P. aeruginosa PAO1 by monitoring pyocyanin production (FIG. 34b and FIG. 38).
# The cells were grown with the analog at 3 mL total volume in 50 mL flasks in LB medium, with continuous shaking. Between 22-24 h, when the cells turned green after pyocyanin secretion, the pigment was extracted. The pyocyanin quantification assay was conducted as described. 2 mL chloroform was added to the 3 mL culture and pipetted up and down. 1 mL of the chloroform was transferred to a separate tube and the pyocyanin was re-extracted into 200 μL of 0.2 M HCl. The absorbance of the solution was measured at OD 520 nm. To calculate the concentration of pyocyanin extracted as μg/mL, the OD at 520 nm was multiplied by 17.07.
# E. coli = assay: DPD analogs and representative bacterial species affected (Table 1); assay type: cell-based; set-up: key: x: DPD Analogs and representative bacterial species affected
# V. harveyi = assay: as above; assay type: cell-based; set-up: key: x: DPD Analogs and representative bacterial species affected
# V. harveyi BB170 = assay: QS response (bioluminescence), trispecies synthetic ecosystem; assay type: cell-based; conditions: LM media
# Description: The effect of isobutyl-DPD or isopropyl-DPD on QS associated bioluminescence production by V. harveyi was recorded by measuring the light production from reporter strain, V. harveyi BB170. The analogs were added at concentrations of (20 μM or 40 μM) to V. harveyi BB170 which was assayed as previously described.
# The S. typhimurium MET708, V. harveyi BB170 and E. coli W3110 pCT6 were each cultured separately overnight in LM medium supplemented with the appropriate antibiotic. V. harveyi BB170, S. typhimurium MET708 and E. coli MDAI-2 were diluted (1:4:8), respectively, into a single 1 ml volume of fresh LM medium without antibiotics. The co-culture was supplemented with either 20 μM or 40 μM analog initially and again after 3 and 5 hours of growth. The V. harveyi luminescence response was measured after 2.5 hours. The S. typhimurium lacZ (β-galactosidase) activity was measured after 4 hours. The E. coli response was determined after 8 hours, by fixing the cells with 1:1 cold 4% paraformaldehyde and using flow cytometric analysis. Samples were analyzed by flow cytometery (FACS Canto II, BD 394 Biosciences), with 20,000 gated events analyzed per sample.
# S. typhimurium MET708 = assay: Trispecies synthetic ecosystem (S. typhimurium, V. harveyi, E. coli): β-galactosidase activity; assay type: cell-based; conditions: trispecies co-culture, lacZ activity after 4 hours
# Source text: (§5) To investigate the effect of the DPD analogs in a mixed bacterial environment, a synthetic ecosystem composed of three different bacterial populations was assembled. Specifically, S. typhimurium MET708, V. harveyi BB170 and E. coli W3110 (pCT6), each luxS^+ (Table 2), and each producing their native AI-2 were co-cultured in the same tubes. By design, each species was selected so that a different reporter probe would indicate the specific bacterium's QS response: S. typhimurium (MET708) expresses β-galactosidase; V. harveyi (BB170) elicits bioluminescience; and E. coli (W331) are engineered to synthesize GFP. In this way, their responses can be differentiated and quantified in response to AI-2.
# (§6) The S. typhimurium MET708, V. harveyi BB170 and E. coli W3110 pCT6 were each cultured separately overnight in LM medium supplemented with the appropriate antibiotic. […] The V. harveyi luminescence response was measured after 2.5 hours. The S. typhimurium lacZ (β-galactosidase) activity was measured after 4 hours. The E. coli response was determined after 8 hours, by fixing the cells with 1:1 cold 4% paraformaldehyde and using flow cytometric analysis. Samples were analyzed by flow cytometery (FACS Canto II, BD 394 Biosciences), with 20,000 gated events analyzed per sample.
# E. coli W3110 pCT6 = assay: Trispecies synthetic ecosystem: AI-2 stimulated GFP expression, flow cytometry; assay type: cell-based; conditions: trispecies co-culture, flow cytometry after 8 hours; 60.7% without analog
# Source text: as §5, §6
# [4] = test system: lsr expression in E. coli (lsr-lacZ reporter strains); assay: QS response (lsr expression): AI-2 dependent β-galactosidase production, Miller assay; assay type: cell-based, Escherichia coli; conditions: E. coli SH3 (lsrK−, luxS−), 20 μM ethyl-DPD
# T1 sequence (P77432 whole entry): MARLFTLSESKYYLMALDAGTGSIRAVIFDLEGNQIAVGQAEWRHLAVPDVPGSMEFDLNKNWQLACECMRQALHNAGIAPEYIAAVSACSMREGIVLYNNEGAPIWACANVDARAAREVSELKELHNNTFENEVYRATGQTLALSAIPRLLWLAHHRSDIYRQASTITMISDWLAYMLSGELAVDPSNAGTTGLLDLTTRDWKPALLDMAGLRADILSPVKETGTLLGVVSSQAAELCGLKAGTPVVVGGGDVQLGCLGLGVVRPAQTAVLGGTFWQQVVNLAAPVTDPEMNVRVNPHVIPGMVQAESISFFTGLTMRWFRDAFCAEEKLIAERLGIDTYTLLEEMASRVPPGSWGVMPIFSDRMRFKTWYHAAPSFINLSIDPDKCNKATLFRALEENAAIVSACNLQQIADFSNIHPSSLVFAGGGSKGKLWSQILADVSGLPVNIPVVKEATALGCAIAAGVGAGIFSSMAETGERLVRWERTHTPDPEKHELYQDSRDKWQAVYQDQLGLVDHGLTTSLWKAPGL
structure (smiles),measurement,setting,value
"O=C(C(=O)C1CCC1)C(O)CO (stereo not shown) [Cyclobutyl-DPD, Cyclobutyl DPD]",bacterial species affected: S. mutans,S. mutans,x
same,"inhibition of AI-2-mediated lsr expression (β-galactosidase), in words",[1]; E. coli LW7 pLW11 (luxS−),inhibit lsr expression
same,phosphorylation by E. coli LsrK,LsrK,significantly phosphorylated
"CCCCCCCC(=O)C(=O)[C@@H](O)CO [Heptyl-DPD, heptyl-DPD]",IC50,[2],> 40000 nM
same,IC50,[1],15900 nM
same,inhibition of pyocyanin production,[3],some inhibition
same,bacterial species affected: E. coli,E. coli,x
"CCCCC(=O)C(=O)[C@@H](O)CO [Butyl-DPD, butyl-DPD]",effect on native lsr expression (QS response),"[2]; S. typhimurium MET708 (luxS+), cells produce their own AI-2",considerable QS response reduction; also recorded: significantly inhibited signaling
same,IC50,[2],> 40000 nM
same,IC50,[1],2970 nM
same,bacterial species affected: V. harveyi,V. harveyi,x
same,bacterial species affected: E. coli,E. coli,x
"O=C(C(=O)C(O)CO)c1ccco1 (stereo not shown) [furanosyl-DPD, Furanyl DPD]",bacterial species affected: S. mutans,S. mutans,x
same,"inhibition of AI-2-mediated lsr expression (β-galactosidase), in words",[1]; E. coli LW7 pLW11 (luxS−),minimal
CC(C)C(=O)C(=O)C(O)CO (stereo not shown) [isopropyl-DPD],effect on native lsr expression (QS response),[1],substantial reduction; also recorded: partial antagonist
same,decrease of bioluminescence in V. harveyi,V. harveyi BB170; 20 μM,50%
same,decrease of bioluminescence in V. harveyi,V. harveyi BB170; 40 μM,50%
same,phosphorylation by LsrK,LsrK; incubation with LsrK and excess ATP for 2 hours (Example 1),phosphorylated
same,"reduction of the S. typhimurium response, in words",S. typhimurium MET708,unable to cause any reduction
same,"QS positive (green, GFP) cells of the E. coli population after analog addition",E. coli W3110 pCT6,21.4%
same,bacterial species affected: E. coli,E. coli,x
"O=C(C(=O)C1CCCCC1)C(O)CO (stereo not shown) [Cyclohexyl-DPD, cyclohexyl-DPD]","effect on AI-2-mediated lsr expression (β-galactosidase), in words","[2]; S. typhimurium MET715 (luxS−), 20 μM AI-2 (DPD) + 20 μM analog",increased expression
same,"inhibition of AI-2-mediated lsr expression (β-galactosidase), in words",[1]; E. coli LW7 pLW11 (luxS−),attenuated lsr expression in E. coli to a lesser extent
same,phosphorylation by E. coli LsrK,LsrK,weakly phosphorylated
same,phosphorylation by E. coli LsrK,LsrK; listed as cyclohexyl,not phosphorylated
same,bacterial species affected: V. harveyi,V. harveyi,x
same,bacterial species affected: E. coli,E. coli,x
CCC(=O)C(=O)[C@@H](O)CO [ethyl-DPD],agonist activity for lsr expression,"[2]; S. typhimurium MET715 (luxS−), analog only, no AI-2 added",agonist
same,agonist activity for lsr expression,"[1]; E. coli LW7 pLW11 (luxS−), analog only, no AI-2 added",agonist
same,bacterial species affected: V. harveyi,V. harveyi,x
same,lsr transcription in LsrK knockout strain,[4],did not initiate lsr transcription
same,bacterial species affected: E. coli,E. coli,x
CCCCCC(=O)C(=O)[C@@H](O)CO [Pentyl DPD],bacterial species affected: V. harveyi,V. harveyi,x
same,bacterial species affected: E. coli,E. coli,x
CCCC(=O)C(=O)[C@@H](O)CO [propyl-DPD],effect on native lsr expression (QS response),[1],significant knockdown
same,bacterial species affected: V. harveyi,V. harveyi,x
same,bacterial species affected: E. coli,E. coli,x
